For eleven cell lines, relative viability results are on record in the supplement of paper PMC10307832.

Common to all, as to assay: relative viability (nuclei count vs DMSO), 5 days (fraction); higher = more cells survive
Compound in assay [1]: C=CCNC1=C2C[C@@H](C)C[C@H](OC)[C@H](O)[C@@H](C)/C=C(\C)[C@H](OC(N)=O)[C@@H](OC)/C=C\C=C(/C)C(=O)NC(=CC1=O)C2=O [17-AAG] + N=C(N)NC(=N)NCCc1ccccc1 [Phenformin] (partner 250 µM)
Summed up: (§1)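 Relative viability was taken as the ratio of nuclei in treated wells to nuclei in vehicle wells. Lung cancer cell lines in 1536-well plates received compounds by pin tool one day after seeding, either one drug alone or a fixed anchor-drug dose plus five library-drug doses (not always all listed) in √10 steps. Nuclei were counted on 4× images after 5 days of treatment, and values are medians of duplicate plates.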

Compound in assay [2]: C=CCNC1=C2C[C@@H](C)C[C@H](OC)[C@H](O)[C@@H](C)/C=C(\C)[C@H](OC(N)=O)[C@@H](OC)/C=C\C=C(/C)C(=O)NC(=CC1=O)C2=O [17-AAG] + CS(=O)(=O)N1CCN(Cc2cc3nc(-c4cccc5[nH]ncc45)nc(N4CCOCC4)c3s2)CC1 [Pictilisib] (partner 1 µM)
In a few lines:
as §1

Compound in assay [3]: C=CCNC1=C2C[C@@H](C)C[C@H](OC)[C@H](O)[C@@H](C)/C=C(\C)[C@H](OC(N)=O)[C@@H](OC)/C=C\C=C(/C)C(=O)NC(=CC1=O)C2=O [17-AAG] + Nc1ncn([C@H]2C[C@H](O)[C@@H](CO)O2)c(=O)n1 [Decitabine] (partner 2 µM)
In a few lines: as §1

Compound in assay [4]: C=CCNC1=C2C[C@@H](C)C[C@H](OC)[C@H](O)[C@@H](C)/C=C(\C)[C@H](OC(N)=O)[C@@H](OC)/C=C\C=C(/C)C(=O)NC(=CC1=O)C2=O [17-AAG] + CC(=O)c1c(C)c2cnc(Nc3ccc(N4CCNCC4)cn3)nc2n(C2CCCC2)c1=O [Palbociclib] (partner 0.5 µM)
Summed up: as §1

Take NCI-H596: the relative viability in assay [1] (first compound 0.00128 µM) was 0.829; in assay [1] (first compound 0.004048 µM), 0.68; in assay [1] (first compound 0.0128 µM) it was 0.554; in assay [1] (first compound 0.04048 µM), 0.781; in assay [1] (first compound 0.128 µM), 0.309; in assay [2] (first compound 0.00128 µM), 0.363. The relative viability in assay [2] (first compound 0.004048 µM) was determined as 0.304; in assay [2] (first compound 0.0128 µM) it was 0.417; in assay [2] (first compound 0.04048 µM), 0.42; in assay [2] (first compound 0.128 µM) it was 0.253; in assay [3] (first compound 0.00128 µM) it was 1.05; in assay [3] (first compound 0.004048 µM), 0.988. The relative viability is 0.899 in assay [3] (first compound 0.0128 µM), 0.891 in assay [3] (first compound 0.04048 µM) and 0.502 in assay [3] (first compound 0.128 µM).
In the case of EBC-1, the relative viability in assay [2] (first compound 0.00128 µM) worked out at 0.477; in assay [2] (first compound 0.004048 µM) it was 0.157; in assay [2] (first compound 0.0128 µM) it was 0.13; in assay [2] (first compound 0.04048 µM) it was 0.185; in assay [2] (first compound 0.128 µM), 0.143.
As to NCI-H727, the relative viability in assay [1] (first compound 0.00128 µM) was 0.535; in assay [1] (first compound 0.004048 µM), 0.445; in assay [1] (first compound 0.0128 µM) it was 0.475; in assay [1] (first compound 0.04048 µM), 0.287; in assay [1] (first compound 0.128 µM) it was 0.277; in assay [2] (first compound 0.00128 µM), 0.405. The relative viability in assay [2] (first compound 0.004048 µM) amounted to 0.513; in assay [2] (first compound 0.0128 µM) it was 0.217; in assay [2] (first compound 0.04048 µM), 0.171; in assay [2] (first compound 0.128 µM), 0.198; in assay [3] (first compound 0.00128 µM), 0.871; in assay [3] (first compound 0.004048 µM), 0.915. Besides, the relative viability in assay [3] (first compound 0.0128 µM) worked out at 0.875; in assay [3] (first compound 0.04048 µM) it was 0.538; in assay [3] (first compound 0.128 µM) it was 0.411; in assay [4] (first compound 0.00128 µM), 0.661; in assay [4] (first compound 0.004048 µM), 0.706; in assay [4] (first compound 0.0128 µM), 0.588. Also, the relative viability in assay [4] (first compound 0.04048 µM) turned out to be 0.482; in assay [4] (first compound 0.128 µM), 0.425.
As for NCI-H1299, the relative viability in assay [2] (first compound 0.00128 µM) was 0.802; in assay [2] (first compound 0.004048 µM), 0.791; in assay [2] (first compound 0.0128 µM), 0.698; in assay [2] (first compound 0.04048 µM) it was 0.151; in assay [2] (first compound 0.128 µM) it was 0.0717.
With NCI-H1648, the relative viability is 0.522 in assay [3] (first compound 0.004048 µM); 0.547 in assay [3] (first compound 0.0128 µM); 0.38 in assay [3] (first compound 0.04048 µM); 0.324 in assay [3] (first compound 0.128 µM); 0.348 in assay [4] (first compound 0.004048 µM); 0.32 in assay [4] (first compound 0.0128 µM). The relative viability in assay [4] (first compound 0.04048 µM) worked out at 0.431; in assay [4] (first compound 0.128 µM), 0.387.
For SW 900, the relative viability in assay [1] (first compound 0.00128 µM) turned out to be 0.577; in assay [1] (first compound 0.004048 µM), 0.37; in assay [1] (first compound 0.0128 µM), 0.13; in assay [1] (first compound 0.04048 µM), 0.0856; in assay [1] (first compound 0.128 µM), 0.0981; in assay [3] (first compound 0.00128 µM), 0.45. The relative viability in assay [3] (first compound 0.004048 µM) came to 0.368; in assay [3] (first compound 0.0128 µM), 0.332; in assay [3] (first compound 0.04048 µM) it was 0.257; in assay [3] (first compound 0.128 µM), 0.181; in assay [4] (first compound 0.00128 µM) it was 0.575; in assay [4] (first compound 0.004048 µM), 0.511. Further, the relative viability is 0.277 in assay [4] (first compound 0.0128 µM), 0.192 in assay [4] (first compound 0.04048 µM) and 0.125 in assay [4] (first compound 0.128 µM).
Consider IA-LM, for which the relative viability in assay [2] (first compound 0.00128 µM) amounted to 0.325; in assay [2] (first compound 0.004048 µM), 0.366; in assay [2] (first compound 0.0128 µM), 0.182; in assay [2] (first compound 0.04048 µM), 0.0706; in assay [2] (first compound 0.128 µM) it was 0.0517.
In the case of NCI-H1563, the relative viability in assay [1] (first compound 0.00128 µM) amounted to 0.657; in assay [1] (first compound 0.004048 µM), 0.594; in assay [1] (first compound 0.0128 µM), 0.52; in assay [1] (first compound 0.04048 µM) it was 0.464; in assay [1] (first compound 0.128 µM), 0.473; in assay [2] (first compound 0.00128 µM), 0.67. In addition, the relative viability in assay [2] (first compound 0.004048 µM) was determined as 0.647; in assay [2] (first compound 0.0128 µM) it was 0.604; in assay [2] (first compound 0.04048 µM), 0.614; in assay [2] (first compound 0.128 µM), 0.563.
Turning to NCI-H2342, the relative viability in assay [1] (first compound 0.00128 µM) worked out at 0.562; in assay [1] (first compound 0.004048 µM), 0.792; in assay [1] (first compound 0.0128 µM) it was 0.554; in assay [1] (first compound 0.04048 µM) it was 0.398; in assay [1] (first compound 0.128 µM), 0.379; in assay [3] (first compound 0.00128 µM) it was 0.735. The relative viability in assay [3] (first compound 0.004048 µM) was 0.686; in assay [3] (first compound 0.0128 µM) it was 0.739; in assay [3] (first compound 0.04048 µM) it was 0.77; in assay [3] (first compound 0.128 µM), 0.619; in assay [4] (first compound 0.00128 µM), 0.458; in assay [4] (first compound 0.004048 µM), 0.542. The figures for the relative viability in assay [4] (first compound 0.0128 µM), in assay [4] (first compound 0.04048 µM) and in assay [4] (first compound 0.128 µM) were 0.504, 0.495 and 0.525, respectively.
Turning to NCI-H522, the relative viability amounted to 0.627 in assay [1] (first compound 0.00128 µM); 0.599 in assay [1] (first compound 0.004048 µM); 0.635 in assay [1] (first compound 0.0128 µM); 0.294 in assay [1] (first compound 0.04048 µM); 0.471 in assay [1] (first compound 0.128 µM); 0.668 in assay [3] (first compound 0.00128 µM). For the same cell line, the relative viability in assay [3] (first compound 0.004048 µM) came to 0.769; in assay [3] (first compound 0.0128 µM), 0.686; in assay [3] (first compound 0.04048 µM) it was 0.584; in assay [3] (first compound 0.128 µM), 0.431; in assay [4] (first compound 0.00128 µM), 1.02; in assay [4] (first compound 0.004048 µM), 1.15. Moreover, the relative viability was 0.896 in assay [4] (first compound 0.0128 µM), 0.647 in assay [4] (first compound 0.04048 µM) and 0.419 in assay [4] (first compound 0.128 µM).
On to CAL-12T, for which the relative viability in assay [1] (first compound 0.00128 µM) worked out at 0.56; in assay [1] (first compound 0.004048 µM), 0.498; in assay [1] (first compound 0.0128 µM), 0.563; in assay [1] (first compound 0.04048 µM) it was 0.447; in assay [1] (first compound 0.128 µM) it was 0.15; in assay [2] (first compound 0.00128 µM), 0.541. The relative viability in assay [2] (first compound 0.004048 µM) is 0.601; in assay [2] (first compound 0.0128 µM), 0.417; in assay [2] (first compound 0.04048 µM), 0.377; in assay [2] (first compound 0.128 µM), 0.193; in assay [4] (first compound 0.00128 µM), 0.499; in assay [4] (first compound 0.004048 µM), 0.364. In addition, the results for the relative viability in assay [4] (first compound 0.0128 µM), in assay [4] (first compound 0.04048 µM) and in assay [4] (first compound 0.128 µM) were 0.486, 0.191 and 0.167, respectively.
